What is called Kd is a measure of binding affinity in units of concentration.

Results on three molecules are retold here after patent US11389411B2, “Pharmaceutical composition, containing NM23 activator, for inhibiting cancer metastasis” (EWHA UNIVERSITY—INDUSTRY COLLABORATION FOUNDATION, priority 2017, dated 2022).

SMILES strings stand for the structures. Read-outs that look alike come from different tables or passages of the source.

The target in experiment [1] is T1, Nm23-H1 (Homo sapiens, UniProt P15531). Description: NDPK assay with recombinant Nm23-H1. The note with it: for Relative NDPK activity (±S.D): relative to a DMSO-treated group (DMSO = 1). Format: biochemical. On the procedure:
(§1) 5 ng of recombinant Nm23-H1 was incubated with 5 μM ADP and a test substance (the compound of Formula 2-1, 3-1 or 4-1) in NDPK assay buffer (20 mM HEPES, 3 mM MgCl2) at mom temperature for 1 minute, and cell-based NDPK assay was performed. A cell lysate obtained from 5,000K MDA-MB-231 cells lysed with a protease inhibitor cocktail and an NDPK assay buffer was centrifuged at 8,000 rpm for 10 minutes at 4° C. 40 μL of the lysate was incubated with the test substance for 5 minutes, and then 50 μM UDP was added thereto and reacted with NDPK. ATP consumption was assessed by an ATP determination kit (Molecular probe, USA).

In experiment [2] the test system is Rac1. Description: Rac1 activity assay (active Rac1 pulldown). Format: cell-based. The protocol: MDA-MB-231 cells were grown in a 100 mm dish and treated with the compound of Formula 2-1 or 0.05% DMSO at an indicated concentration for 16 hours. Active Rac1 pulldown assays were performed according to the manufacturer's instructions (Termo Fisher Scientifc).
Experiment [3] has as its target Nm23-H2 (Homo sapiens, UniProt P22392). Put plainly: NDPK activity assay on Nm23-H2. It counts as biochemical. The note with it: FIG. 3D.
The target in experiment [4] is T1, Nm23-H1. Put plainly: Surface plasmon resonance analysis of interaction with immobilized Nm23-H1. It counts as binding. The conditions noted are these: SPR, 25° C.; for Kd: calculated Kd/Ka; for kon: read-out: Ka. On the procedure: The interaction between the compound of Formula 2-1 and Nm23-H1 was analyzed using a surface plasmon resonance instrument (SR7500 DC, Reichert Inc., NY) at 25° C.
Nm23-H1 (1 mg/ml) in 10 mM S.A buffer (pH 4.5) was immobilized using the standard amino coupling at 20 μL/min for 10 minutes on a carboxymethyl dextran hydrogel (CMDH) surface sensor chip (Reichert Technologies, NY) until saturation was achieved.
Different concentrations of the compound of Formula 2-1 (10-160 μM) in binding buffer (10 mM HEPES, pH 7.4, 100 mM NaCl, 1 mM MgCl2, and with or without 2 mM ATP) were allowed to flow over the immobilized Nm23-H1 (approximately 8200 RU) at a rate of 30 μL/min.
The sensor surface was regenerated after each association and dissociation cycle by injecting 2M NaCl for 1 min. Sensorgrams were fitted to a simple 1:1 Langmuir interaction model (A+B⇄AB) using data analysis program Scrubber 2.0 (BioLogic Sofware, Australia, and Kaleida Graph Sofware, Australia).
KD is a value obtained by calculating Kd/Ka.

In experiment [5] the test system is MDA-MB-231 cells. Put plainly: Cell-based NDPK assay (MDA-MB-231 cell lysate). The conditions noted are these: FIG. 3C, MDA-MB-231 lysate, concentration dependence. On the procedure:
as §1

Experiment [6] has as its system A549 cells. Put plainly: Transwell migration and matrigel invasion of A549 cells. The conditions noted are these: FIG. 7B. It counts as cell-based. On the procedure:
(§2) When cells reached a confluence of 70%, the cells were treated with the compound of Formula 2-1 for 16 hours. 1×10^5 cells were suspended in PBS-free medium and added onto a Boyden chamber membrane. 10% PBS-containing culture was added to the bottom of the membrane. The chamber was incubated at 37° C. under 5% CO2 for 4 hours. The migrated cells were fixed and stained with crystal violet/methanol. The cells were photographed, and the migrated cells were counted and normalized to control cells.

Experiment [7] relates to MDA-MB-231 cells. Description: Immunofluorescence analysis (F-actin, confocal microscopy). Format: cell-based. The note with it: FIG. 6A. On the procedure: MDA-MB-231 cells were grown on the Secureslip™ (Sigma) cell culture glass cover slip to a confluence of 50 to 70%, and incubated in the presence or absence of the compound of Formula 2-1 for various periods of time. The cells were gently washed with cold HBSS, and then fixed with 4% paraformaldehyde-containing HBSS in RBS for 10 minutes. After washing with HBSS, permeabilization with 0.1% Triton X-100 was performed for 10 minutes at mom temperature. After washing twice with HBSS, the cells were blocked with HBSS containing 3% BSA, 0.2% Tween 20 and 0.2% gelatin at room temperature for 1 hour, and incubated with primary antibody at mom temperature for 1 hour. Then, the cells were incubated with fluorochrome-conjugated species-specific secondary antibodies for 1 hour.
All the antibodies were diluted with 1% BSA-containing HBSS. Coverslips were mounted with anti-fading solution, and viewed using a ×63 objective lens of an LSM510 META (Zeiss) laser scanning confocal microscope.

Experiment [8] relates to MDA-MB-231 luc cells. Put plainly: Breast cancer metastasis model (MDA-MB-231 luc cells in mammary fat pad). It counts as in vivo, nude mice. The source says: In order to confirm the metastasis suppressing activity of the compound of Formula 2-1 according to the present disclosure in an actual animal model, MDA-MB-231 luc cells were applied to a breast cancer metastasis model.

The target of experiment [9] is T1, Nm23-H1. Description: Isothermal titration calorimetry. Format: binding. The note with it: FIG. 4, with and without ATP. On the procedure:
An ITC experiment was performed using the ITC200 system (Malvern Inc.), and the data were analyzed using ORIGIN 7.0 program. The concentration of Nm23-H1 protein in the cells was 30 μM, and the syringe contained 300 μM of the activator or 1 mM ATP. The activator was prepared at a concentration of 50 mM in DMSO (dimethyl sulfoxide) and stored at −20° C. ITC buffer contained (pH 7.5) 150 mM NaCl, 3 mM MgCl2 and 20 mM HEPES in up to 2% DMSO. For titration, each 2 μL was injected 20 times 25° C. at intervals of 150 seconds. No evidence of DMSO binding at the nucleotide binding site was observed. The experimental raw data were corrected by subtracting the value for the buffer, and then fitted to a single site binding model. The titration data were fitted using a nonlinear least squares curve-fitting algorithm with three floating variables: stoichiometry (N), dissociation constant (KD), and change of enthalpy of interaction.
In general terms: Isothermal titration calorimetry measures the heat released or taken up as one component is titrated into another.

For experiment [10], the system named is MDA-MB-231 cells. Description: Invasion assay and transwell migration assay in MDA-MB-231 cells. It counts as cell-based. On the procedure:
as §2

[11] abbreviates: FIG. 7A, MDA-MB-231 cells, different concentrations.

T1 sequence (P15531 whole entry): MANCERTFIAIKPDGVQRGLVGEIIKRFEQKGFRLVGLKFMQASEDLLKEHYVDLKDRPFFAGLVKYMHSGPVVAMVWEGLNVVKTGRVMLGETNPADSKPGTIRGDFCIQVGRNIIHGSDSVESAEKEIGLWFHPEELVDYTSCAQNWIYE
Sequence of Nm23-H2 (P22392 whole entry): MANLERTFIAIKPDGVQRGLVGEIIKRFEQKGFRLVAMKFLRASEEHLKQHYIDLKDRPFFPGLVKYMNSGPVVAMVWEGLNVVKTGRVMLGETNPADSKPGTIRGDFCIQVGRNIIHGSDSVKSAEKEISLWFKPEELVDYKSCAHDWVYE

In the case of `COc1ccc(/C=C/c2ccccc2-c2ccc(OC)c(OC)c2)cc1OC` [Formula 3-1], in experiment [1], the “Relative NDPK activity (±S.D)” value is listed as 4.11 (±0.16).
Consider `COc1ccc(/C=C/[C@H]2CCCCC2c2ccc(OC)c(OC)c2)cc1OC` (some centres unmarked) [Formula 4-1], for which the “Relative NDPK activity (±S.D)” value in experiment [1] is reported as 2.41 (±0.29).
As to `COc1ccc(/C=C/[C@H]2CCC=C[C@@H]2c2ccc(OC)c(OC)c2)cc1OC` [Formula 2-1], the “activity of Rac1” value in experiment [2] (FIG. 6B, MDA-MB-231 cells, 16 hours) was “reduced the activity of Rac1 in a concentration-dependent manner”. Further, in experiment [2] (FIGS. 6C and 6D), the “effect on Rac1 activity after knockdown of Nm23-H1” value is on record as “abolished by knockdown of Nm23-H1”. Besides, the “NDPK activity on Nm23-H2” value in experiment [3] was “showed the same activity”. Also, the Kd in experiment [4] (2 nM ATP) is 1.49 ± 0.03 µM; in [4] (without ATP) it was 17.9 ± 0.2 µM. The kon was determined as 71 ± 1 M⁻¹ s⁻¹ in [4] (2 nM ATP) and 78 ± 1 M⁻¹ s⁻¹ in experiment [4] (without ATP). For the same molecule, the “cell-based NDPK activity” value in experiment [5] is “increased depending on the concentration”. Moreover, the “NDPK activity of Nm23-H1” value in [1] (FIG. 3A, concentration dependence) is listed as “increased depending on the concentration”. Also, the “V0, Km of the enzyme (NDPK activity depending on the concentration of UDP)” value in experiment [1] (FIG. 3B) is “Km-type activity similar to that of a conventional enzyme activator”. In experiment [1], the “Relative NDPK activity (±S.D)” value is 4.04 (±0.13). In addition, the matrigel invasion result in experiment [6] and in [10] (setting [11]) was “reduced” in each case. Besides, the transwell migration entry in experiment [6] and in [10] (setting [11]) was “reduced” in each case. The “change of F-actin / cell morphology” value in [7] is “ruffles decreased and intercellular contact increased”. Besides, the “metastasis of the cells to the lung” value in experiment [8] (FIG. 8, 10 mg/kg daily, 4 weeks) is given as “decreased”. In addition, the “volume of the tumor” value in [8] (FIG. 9, 10 mg/kg daily) was “decreased”. Also, the “cells that metastasized to the lung” value in experiment [8] (FIG. 10, 10 mg/kg daily) is “statistically significantly decreased”. The “direct interaction with Nm23-H1 (ITC)” value in [9] was “occurred and was further enhanced in the presence of ATP”. For the same molecule, in experiment [10] (FIG. 7C), the “effect on migration/invasion after knockdown of Nm23-H1 and Nm23-H2” value was “reduced by knockdown of Nm23-H1 and Nm23-H2”.
